Test results as given in PMC7948455, “Novel drug discovery platform for spinocerebellar ataxia, using fluorescence technology targeting β-III-spectrin” (The Journal of Biological Chemistry, 2020).
pKd: −log10 of the molar value. “And” between values parts separate entries of the source, which are not always exact repeats. Identical values can stand only once.

How the values were obtained:
[1] = tested on: mammalian cells; settings: cited from earlier work
[2] = target: T1, Lifeact-mCherry binding to actin (Oryctolagus cuniculus, UniProt P68135); test: F-actin and Lifeact-mCherry cosedimentation assay; settings: for Effect on actin-Lifeact cosedimentation: 10 μM Hit compound
T1 construct: from tissue; host or cells: actin: rabbit psoas muscle; Lifeact-mCherry: made in house in E. coli (pE-SUMOpro)
Protocol: (§1) Actin was purified from acetone powder derived from the psoas muscle of New Zealand white rabbit (Oryctolagus cuniculus) ([46]). Filamentous (F)-actin was stored for up to 3 days on ice before use in binding assays. Within an hour of the binding assay, the F-actin was clarified at 100,000g at 4 °C for 10 min prior to setting up binding assays. The L253P β-III-spectrin ABD was expressed in E. coli BL21(DE3) (Novagen). The ABD was purified and the His-SUMO tag proteolytically removed, as previously described ([14]), except size-exclusion chromatography was not performed due to the high purity of the ABD protein. Lifeact-mCherry protein was similarly prepared. A Bradford assay was performed to determine clarified F-actin and ABD protein concentrations.
(§2) F-actin and ABD binding assays were performed as previously described ([10]). In brief, binding assays used 1 μM ABD protein, 1 μM F-actin, and 1 to 50 μM compound (as indicated) or DMSO control for a total reaction volume of 60 μl in F-buffer containing 10 mM Tris, pH 7.5, 150 mM NaCl, 0.5 mM ATP, 2 mM MgCl2, and 1 mM DTT. Following 30 min incubation at room temperature (21 °C). F-actin was pelleted using centrifugation at 100,000g at 25 °C for 30 min. Unbound ABD in the supernatant was measured following SDS-PAGE and Coomassie blue staining in accord ([10]). In addition, control cosedimentations assays that lacked actin were performed to test if compounds cause ABD aggregation. F-actin and Lifeact-mCherry binding assays were undertaken with 2 μM Lifeact-mCherry, 30 μM F-actin, and 1 to 50 μM compound (as indicated) or DMSO control for a total reaction volume of 80 μl in F-buffer. For a no-actin binding control, an assay sample with no F-actin was also set up. Binding reactions were allowed to reach equilibrium at room temperature (21 °C) for 30 min, and then F-actin was pelleted by centrifugation at 100,000g at 25 °C for 30 min. The amount of unbound Lifeact-mCherry was sampled by loading 7 μl of spin supernatant on a low-volume black bottom 384-well plate (Greiner). Amount of mCherry was determined by acquiring fluorescence spectrum peak intensity at ∼600 nm using a spectral unmixing plate reader (Fluorescence Innovations, Inc) equipped with a 532 nm laser (Laserglow Technologies, Ontario, Canada) for excitation, 532 nm long-pass filter for emission, and PMT for emission detection. The fraction of Lifeact-mCherry bound to F-actin was determined by subtracting from one the fraction of supernatant fluorescence intensity relative to the no-actin control sample:(3) Lifeactboundfraction=1−Fcompound/DMSO/FNo−actin where Fcontrol/DMSO is the peak mCherry fluorescence of assay samples containing compound or DMSO control, and Fno-actin is the peak mCherry fluorescence of assay samples that contained no F-actin.

[3] = tested on: HEK293-6E cells; test: Trypan blue cell viability assay; assay type: cell-based
Protocol: HEK293-6E cell viability was measured using trypan blue (0.03%) staining and a Countess Automated Cell counter (Invitrogen). Nontransfected HEK293-6E cells were spun at 100g for 5 min at 21 °C and resuspended in 10 ml of PBS. The centrifugation and resuspension were repeated twice more. Final cell concentration was 1 × 10^6 cells/ml. Cells were incubated with 2% DMSO or 3 to 50 μM compound (as indicated) for 3 h at room temperature (21 °C). After addition of 100 μl of 0.06% trypan blue solution in PBS, 10 μl was loaded on a slide and injected into the cell counter, and cell viability was measured.

[4] = target: T2, binding of the mutant β-III-spectrin L253P ABD to F-actin (Homo sapiens, UniProt O15020, L253P); test: Primary live-cell FRET assay (GFP-ABD-L253P + Lifeact-mCherry) in HEK293-6E cells; assay type: cell-based; settings: for Effect of Hit compound on primary FRET: LOPAC Hits (10 μM screen, 4SD threshold, 120 min) and dose response
T2 construct: the β-III-spectrin (human) ABD residues 1 to 284; expressed in transfected cells; host or cells: HEK293-6E (pTT5 vector, transient transfection)
T2 sequence (O15020 1-284 L253P): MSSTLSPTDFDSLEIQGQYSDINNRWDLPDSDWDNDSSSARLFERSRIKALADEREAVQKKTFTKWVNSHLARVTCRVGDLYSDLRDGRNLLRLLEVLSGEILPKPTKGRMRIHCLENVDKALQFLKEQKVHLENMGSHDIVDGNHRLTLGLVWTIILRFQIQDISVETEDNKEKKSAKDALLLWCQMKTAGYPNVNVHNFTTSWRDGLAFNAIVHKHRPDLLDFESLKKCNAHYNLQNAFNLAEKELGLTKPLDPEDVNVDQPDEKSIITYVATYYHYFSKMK
Protocol: To develop a biosensor that monitors the binding of mutant L253P β-III-spectrin to actin filaments in live cells, a FRET approach was tested. A FRET donor construct consisting of green fluorescent protein fused to the N terminus of the mutant ABD (GFP-ABD-L253P) was coexpressed in HEK293-EBNA1-6E (HEK293-6E) cells with a FRET acceptor construct consisting of the actin-binding peptide, Lifeact, fused to the N terminus of red fluorescent protein, mCherry (Lifeact-mCherry). Lifeact is a 17 amino acid peptide derived from the yeast actin-binding protein, ABP140 ([15]). […] The cryo-EM structures of ABD L253P and Lifeact on actin indicate that the binding sites overlap on actin units. With ABD L253P and Lifeact bound on neighboring actin units, we predicted an average distance of ∼80 Å between GFP and mCherry (Fig. 1). With a known Förster distance R0 of 52.4 Å ([17]), this corresponds to FRET value of 0.07, a sufficient signal for a biosensor platform. To design a system most compatible for large production and eventual screening of 50,000+ compound libraries, we used HEK293-6E cells, a suspension cell line that yields greater levels (>threefold) of recombinant protein expression ([18], [19]).
With a constant amount of GFP-ABD-L253P expressed, increased Lifeact-mCherry expression increases FRET with an exponential plateau to 0.12 (Fig. 2A). To measure the nonspecific component of our FRET readout, we concurrently tested expression of mCherry in place of Lifeact-mCherry. For comparison, the Lifeact-mCherry and mCherry fluorescence intensity values (normalized to 1:1 GFP-ABD:Lifeact-mCherry sample) are plotted on the X-axis for samples transfected with different donor-to-acceptor DNA ratios. […] With the trade-off between high FRET and minimal nonspecific FRET, the donor:acceptor ratio 1:2 was chosen for the experiments that followed (Fig. 2A). […] Of note, we also tested the biosensor using WT-ABD, which yielded substantially lower FRET (Fig. S1), consistent with the 1000-fold decrease in affinity of WT-ABD for actin ([10]). We proceeded to test the compatibility of the GFP-ABD-L253P and Lifeact-mCherry assay for primary compound screening and the GFP-ABD-L253P and mCherry assay as a potential high-throughput counter screen.
To test the performance of the assay in HTS, the 1280 LOPAC compounds, together with 256 DMSO controls, were dispensed in 5 nl volumes into individual wells of 1536-well microplates and stored at −20 °C until use. To test the reproducibility of replicate screens on the same day, a single batch of HEK293 cells was transfected with GFP-ABD-L253P and Lifeact-mCherry. In addition, control cells were transfected with only GFP-ABD-L253P, to determine compound effect on donor-only lifetime (τD). To test reproducibility of the screens across different days, identical transfections were performed on another batch of HEK293-6E cells on a second day. Following plate thaw, 5 μl of assay cells were loaded in each well via a multidrop liquid dispenser, and a time course of compound effects (at 20, 120, and 180 min post load) on fluorescence lifetime was acquired using a fluorescence lifetime plate reader (FLT-PR). This technology has been advanced to high-density 1536-well plates in recent years for successful HTS using a range of protein biosensors including sarcoplasmic reticulum Ca-ATPase ([24], [25], [26], [27]), ryanodine receptor ([23], [28]), actin ([20]), tumor necrosis factor receptor 1 ([29], [30]), and tau ([31]).
At 2 × 10^6 cells/ml, HEK293-6E cells were transfected with GFP-ABD-L253P or GFP-ABD-WT (2.4 μg), Lifeact-mCherry (2.4–16.8 μg), mCherry (1.2–16.8 μg), and/or pTT5 (0.8–17.6 μg), as indicated, using the 293fectin protocol (Thermo Fisher Scientific) with 20 μg total DNA. Cells were transfected with either GFP-ABD-L253P or –WT, but coexpression of the WT and mutant isoform was not explored in this study. The cells were harvested 24 h later by centrifugation at 100g for 5 min and then washed twice with PBS. […]

[5] = target: T3, ABD L253P (Homo sapiens, UniProt O15020, L253P); test: Sedimentation of ABD L253P without actin (aggregation); settings: 10 μM Hit compound, n = 4
T3 construct: the β-III-spectrin (human) ABD residues 1 to 284; His-SUMO (cleaved yes); made in house; host or cells: E. coli BL21(DE3), vector pE-SUMOpro
T3 sequence (O15020 1-284 L253P): as above
Protocol: In addition to a reduction in cell viability, the primary and counter screen may be sensitive to compounds that promote ABD-L253P protein aggregation. […] Our assay measuring ABD-L253P cosedimentation with actin is not sensitive to ABD aggregation, as it is designed to work under conditions where ∼90% ABD-L253P cosediments with actin. Nevertheless, we repeated these measurements in the absence of actin.
as §2

[6] = target: T4, ABD-L253P binding to actin (Homo sapiens, UniProt O15020, L253P); test: F-actin and ABD cosedimentation assay; settings: 3 μM swinholide A, 50 μM tegaserod; n = 4
T4 construct: the β-III-spectrin (human) ABD residues 1 to 284; His-SUMO (cleaved yes); made in house; host or cells: E. coli BL21(DE3), vector pE-SUMOpro; actin from rabbit psoas muscle tissue
T4 sequence (O15020 1-284 L253P): as above
Protocol: as §1, §2

[7] = target: actin filaments; settings: read-out: Affinity for actin; cited from earlier work
[8] = 10 μM Hit compound, 3 h incubation

| Compound | Effect on actin-Lifeact cosedimentation [2] | Effect on HEK293-6E cell viability [3, 8] | Effect of Hit compound on primary FRET [4] | Effect on ABD pelleting without actin (aggregation) [5] | also measured |
| --- | --- | --- | --- | --- | --- |
| CCCCCCCCCCCCCCCC(=O)OC(CC(=O)[O-])C[N+](C)(C)C (racemic) [palmitoyl-DL-carnitine] | decreased | dramatically reduced | decrease FRET |  | Effect on cell viability in mammalian cells [1]: reduce cell viability |
| CC(C)(Sc1ccc(CCN(CCCCC2CCCCC2)C(=O)NC2CCCCC2)cc1)C(=O)O [GW7647] | decreased | dramatically reduced | decrease FRET | promote aggregation |  |
| CCCc1c(-c2ccc(O)cc2)nn(-c2ccc(O)cc2)c1-c1ccc(O)cc1 [PPT] |  |  | decrease FRET | trend toward increasing |  |
| Clc1ccc(C(c2ccc(Cl)cc2)n2cc[n+](CC(OCc3ccc(Cl)cc3Cl)c3ccc(Cl)cc3Cl)c2)cc1 (centres unmarked) [calmidazolium] | decreased | dramatically reduced | decrease FRET |  | Effect on cell viability in mammalian cells [1]: reduce cell viability |
| Cc1cc2c(C(C)C)c(O)c(O)c(C=O)c2c(O)c1-c1c(C)cc2c(C(C)C)c(O)c(O)c(C=O)c2c1O [gossypol] |  |  | decrease FRET | promote aggregation | Reduction of cell viability ([1]; 10 μM ref 36, 37, 38): < 10% |
| [H]/N=C(/NCCCCC)N/N=C/c1c[nH]c2ccc(OC)cc12 [tegaserod] |  |  |  |  | Effect on Lifeact-mCherry cosedimentation with actin ([2]; 3 μM swinholide A, 50 μM tegaserod): did not alter; Effect on ABD-L253P cosedimentation with actin [6]: no significant effect; Effect on HEK293-6E cell viability ([3]; 3 μM swinholide A, 50 μM tegaserod, 3 h): greatly diminished; Decrease in cell viability ([3]; 50 μM tegaserod, 3 h): 92%; Reduction of Total FRET in primary FRET assay ([4]; 50 μM tegaserod, relative to DMSO): > 50% and 83% |
| GFP-ABD-L253P: green fluorescent protein fused to N terminus of the mutant β-III-spectrin ABD (L253P); FRET donor |  |  |  |  | pKd [7]: 7.12 |
